The test system of assay [1] is CD44 on human hematopoietic KG1a cells. As to the kind of experiment: Flow cytometric analysis of CD44 on KG1a cells. Particulars: KG1a, neuraminidase (1 hr). Type of assay: cell-based. The text has this: (§1) In a similar set of experiments, we analyzed the effects of 4-F-GlcNAc on selectin ligand expression and function on the human hematopoietic cell line KGla. KGla cells express a distinct HECA-452-reactive CD44 glycoform that functions as both an E- and L-selectin ligand (Dimitroff, C. J. et al. (2001) J. Cell Biol., 53: 1277–1286; Dimitroff, C. J. et al. (2000) Proc. Nat. Acad. Sci., 97(25):13841–46; Sackstein, R. and Dimitroff, C. J. (2000) Blood, 96: 2765–74.), otherwise known as HCELL, respectively. This specialized glycoform represents a major E-selectin and the primary L-selectin ligand on normal CD34+ HPCs and on leukemic cells, and, therefore, is also implicated in the BM homing aspects and growth-related activities of HPCs in vivo, respectively (Id.). We first performed flow cytometric analysis of HECA-452 antigen and CD44 on 4-F-GlcNAc-treated KGla cells. […] Only positive cells, which were those cells with fluorescence above background autofluorescence and fluorochrome-conjugated secondary Ab staining, were analyzed.
(§2) Flow cytometric analysis was performed on human leukocytes utilizing both direct and indirect immunofluorescence staining approaches. All cells utilized for these experiments were washed twice with cold PBS/2%FBS and suspended at 10^7/ml PBS/1% FBS. Primary antibodies, anti-CLA (HECA-452), -CD4, -CD8, CD43 (L60) and PSGL-1 (PL-2) along with the appropriate isotype-matched control antibodies were incubated with the cells for 30 min on ice. Following two washes with PBS/2%FBS, cells were resuspended in PBS/1%FBS and fluorochrome-conjugated secondary antibodies (2 μl) and incubated for 30 min on ice. Cells were washed twice with PBS/2%FBS, resuspended in PBS and flow cytometry was performed on a FACScan apparatus equipped with an argon laser tuned at 488 nm (Becton Dickinson).
For orientation: In flow cytometry, cells or beads pass a laser one at a time.

The subject of assay [2] is HECA-452 epitopes on human hematopoietic KG1a cells. The experiment in a line: Flow cytometric analysis of HECA-452 epitopes on KG1a cells. Particulars: KG1a, neuraminidase (1 hr). Type of assay: cell-based.
Excerpt: as §1, §2

The subject of assay [3] is P-selectin ligand activity of murine Th1 cells. The experiment in a line: Flow chamber analysis of P-selectin binding on murine Th1 cells. Type of assay: cell-based, mouse. Particulars: neuraminidase treatment alone (0.1 U/ml for 1 hr at 37° C.). An excerpt: (§3) CD4+ splenocytes were isolated from C57BL-6 mice by anti-murine CD4 L3T4 magnetic bead technology (Miltenyi Biotec) according to manufacturer's protocol. […] Culturing murine T helper cells in the presence of murine IL-12 and anti-murine IL-4 produces selectin binding Th1 cells by up-regulating FucTVII (69, 70) and core 2 enzyme (43–45, 71, 72), both critical for selectin ligand synthesis (i.e. decoration of PSGL-1 (67, 68)), and prevents the production of non-selectin binding Th2 cells (67–72). Th1 cells were also generated from mice deficient in α1,3 fucosyltransferase, FucTVII, and served as negative controls (33, 38, 40). Cells were harvested and re-plated at 2×10^6cells/ml on non-Ab coated plastic with murine IL-2 (20 ng/ml) in the presence or absence of murine IL-12 (10 ng/ml) and anti-murine IL-4 moAb 11B11 (10 μg/ml) for 48 h. […] Glycosylation inhibitors were added to cultures on day 6.5 for 30 hr, after first treating cells with neuraminidase (0.1 U/ml for 1 hr at 37° C.) to remove all cell surface terminal sialic acid resides and E and P-selectin ligand activity. Since selectin ligands are dependent on terminal sialic acid (α2,3 N-acetylneuraminic acid) for activity, this approach allowed for analysis of de novo synthesized selectin ligands in the presence of 0.05 mM 4-F-GlcNAc, N-glycan inhibitors, 0.23 mM swainsonine and 0.02 mM tunicamycin, and 1 mM GlcNAc (negative control).

Assay [4] relates to HCELL/CD44 activity on human hematopoietic KG1a cells. As to the kind of experiment: Stamper-Woodruff adhesion assay, L-selectin-dependent lymphocyte adherence to KG1a cells. Conditions: KG1a, neuraminidase (1 hr). In kind it is cell-based. The text has this:
To study the effects of 4-F-GlcNAc on the function of the L-selectin binding activity of CD44 (HCELL), we employed the shear-based, Stamper-Woodruff adhesion assay to examine the ability of 4-F-GlcNAc-treated KG1a cells to support L-selectin-dependent lymphocyte adherence. This assay is utilized to specifically assess the shear-dependent binding interactions between L-selectin naturally expressed on lymphocytes and HCELL expressed on KG1a cells (Dimitroff, C. J. et al. (2000) Proc. Nat. Acad. Sci., 97(25):13841–46; Sackstein, R. and Dimitroff, C. J. (2000) Blood, 96: 2765–74.). Before treating KG1a cells with 0.05, 0.1 or 0.5 mM 4-F-GlcNAc, we first pretreated KG1a cells with Vibrio cholerae neuraminidase (0.1 U/ml for 1 hr at 37° C.) to cleave all terminal α2,3 sialic acid-bearing residues and eliminate all HCELL activity. Glutaraldehyde-fixed monolayers of KG1a cells that were first treated with Vibrio cholerae neuraminidase (0.1 U/ml for 1 hr at 37° C.) then re-cultured in the presence of 4-F-GlcNAc (0.05–0.5 mM) for 30 hr at 37° C. Metabolic inhibitors swainsonine, an inhibitor of α-mannosidase II, tunicamycin, an inhibitor of N-acetylglucosamine phosphototransferase, were also utilized to compare the relative potencies of known glycosylation inhibitors. Human peripheral blood lymphocytes (5×10^6cells/ml RPMI1640 w/o NaBicarbonate/5%FBS) were overlayed onto KG1a monolayers at 80 rpm for 30 min. at 4° C., and after gently washing in PBS, lymphocytes bound to cell monolayers were fixed in 3% glutaraldehyde. Re-expression of HCELL activity or HECA-452-reactive CD44 on KG1a cells was determined after […] of 4-F-GlcNAc treatment. Bound lymphocytes were quantified at 100× magnification from a minimum of 5 fields from 2 slides, and the mean number of lymphocytes (standard error of the mean) was calculated.

Assay [5] deals with HECA-452 epitopes. As to the kind of experiment: Flow cytometric analysis of HECA-452 epitopes on human T-lymphocytes. Type of assay: cell-based. Particulars: CLA+ T-cells, neuraminidase (1 hr). The procedure: Only positive cells, which were those cells with fluorescence above background autofluorescence and fluorochrome-conjugated secondary Ab staining, were analyzed.
For analysis of CLA expression on T-cells treated with glycoconjugate modifiers, CLA^+ T-cells were first pretreated with neuraminidase (0.1 U/ml at 37° C. for 1 h) to eliminate functional CLA and cleave all HECA-452 reactive epitopes from the cell surface (35–38). Since we wanted to investigate whether these compounds directly affected CLA expression and function, neuraminidase pretreatment followed by incubations with glycosylation modifiers allowed for examination of de novo synthesized CLA/HECA-452 epitopes re-expressed on the cell surface. After neuraminidase digestion, cells were then incubated with tunicamycin (0.02 mM) (an inhibitor of GlcNAc phosphotransferase, the initial step of N-glycosylation), swainsonine (0.23 mM) (an inhibitor of α-mannosidase II and complex-type N-glycosylation), 4-F-GlcNAc (0.05 mM) (putative inhibitor of poly-N-acetyllactosamine biosynthesis), BAG (an inhibitor of O-glycan biosynthesis) (<2 mM) or GlcNAc (5 mM) (negative control, naturally-occurring metabolic counterpart of 4-F-GlcNAc)for 30 h in the presence of human recombinant IL-2. […] Concentrations for BAG were selected based on maximal O-glycosylation inhibitory effects at non-growth inhibitory concentrations as previously reported (39). To determine a suitable concentration of 4-F-GlcNAc for examining glycoconjugate-modifying effects without influencing cell growth or protein synthesis, we performed preliminary growth inhibitory experiments of cells incubated with 4-F-GlcNAc for 2 cell doublings (˜36 h) at 37° C. (cell viability assessed by Trypan-blue exclusion).
as §2, with “ice.” for “ice. Cells were washed twice with PBS/2%FBS, resuspended in PBS and flow cytometry was performed on a FACScan apparatus equipped with an argon laser tuned at 488 nm (Becton Dickinson).”

Assay [6] has as its system E-selectin ligand activity of murine Th1 cells. The experiment in a line: Flow chamber analysis of E-selectin binding on murine Th1 cells. In kind it is cell-based, mouse. Particulars: neuraminidase treatment alone (0.1 U/ml for 1 hr at 37° C.).
Excerpt: as §3

Marks after values point to notes of the source that are not given here.

For “neuraminidase: Vibrio cholerae neuraminidase, cleaves terminal sialic acid residues”, the “CD44 % Positive Cell Staining” value in assay [1] is recorded as 100%. In addition, the “HECA-452 Mean Channel Fluorescence” value in assay [2] was determined as 43. Moreover, the “P-selectin ligand activity of Th1 cells” value in assay [3] was “decreased E and P-selectin ligand activity to baseline levels”. For the same substance, in assay [4], the “% Inhibition (lymphocyte binding)” value was 98* % and the “Mean Lymphocyte Binding” value is given as 4.2. Moreover, the “HECA-452 Mean Channel Fluorescence” value in assay [5] stood at 27. In addition, the “E-selectin ligand activity of Th1 cells” value in assay [6] is “decreased E and P-selectin ligand activity to baseline levels”.

Values taken from US7098195B2, “Fluorinated glucosamine analogs useful for modulating post-translational glycosylations on cells” (Health Research, Inc., priority 2001, dated 2006).
